According to patent US7138246B2, “Methods for identifying or screening for agents that modulate 17β-HSD3” (Bristol-Myers Squibb Company, priority 2004, dated 2006):

Key:
AR = target: T1, AR (Homo sapiens, UniProt P10275, Q868H); test: testosterone-stimulated parental MDA-MB453 (direct effects on AR); format: cell-based
T1 construct: endogenous in cells; host or cells: parental MDA-MB453
T1 sequence (P10275 1-920 Q868H): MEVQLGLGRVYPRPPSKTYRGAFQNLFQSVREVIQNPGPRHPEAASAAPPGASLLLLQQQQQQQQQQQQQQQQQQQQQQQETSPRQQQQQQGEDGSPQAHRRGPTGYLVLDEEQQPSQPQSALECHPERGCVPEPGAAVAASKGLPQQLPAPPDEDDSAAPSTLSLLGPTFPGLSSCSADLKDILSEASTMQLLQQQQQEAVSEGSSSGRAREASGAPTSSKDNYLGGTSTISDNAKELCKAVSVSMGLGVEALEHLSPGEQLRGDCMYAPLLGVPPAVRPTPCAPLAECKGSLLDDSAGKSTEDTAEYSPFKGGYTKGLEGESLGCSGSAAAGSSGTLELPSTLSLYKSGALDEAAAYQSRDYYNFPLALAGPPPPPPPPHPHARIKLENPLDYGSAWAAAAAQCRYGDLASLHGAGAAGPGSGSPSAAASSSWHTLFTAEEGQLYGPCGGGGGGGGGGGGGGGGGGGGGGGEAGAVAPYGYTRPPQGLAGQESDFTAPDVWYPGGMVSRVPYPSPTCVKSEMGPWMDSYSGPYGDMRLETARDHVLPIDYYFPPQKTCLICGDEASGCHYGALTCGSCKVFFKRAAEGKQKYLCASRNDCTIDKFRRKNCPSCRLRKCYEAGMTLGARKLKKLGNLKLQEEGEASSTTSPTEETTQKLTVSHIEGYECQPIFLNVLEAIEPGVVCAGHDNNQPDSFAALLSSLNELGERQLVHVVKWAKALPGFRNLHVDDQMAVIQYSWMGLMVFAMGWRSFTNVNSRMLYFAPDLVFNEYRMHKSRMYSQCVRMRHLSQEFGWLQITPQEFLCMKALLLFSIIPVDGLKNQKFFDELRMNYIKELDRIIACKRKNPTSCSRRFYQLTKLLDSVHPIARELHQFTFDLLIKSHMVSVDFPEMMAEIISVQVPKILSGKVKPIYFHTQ

17β-HSD3 = target: T2, 17β-HSD3 (Homo sapiens, UniProt P37058); test: TLC assay of androstenedione to testosterone conversion in Shinogi-17β-HSD3 cells; format: cell-based; conditions: Shinogi-17β-HSD3 cells incubated with {3H}-androstenedione; read-out: IC50 estimated by TLC assay
T2 sequence (P37058 1-310): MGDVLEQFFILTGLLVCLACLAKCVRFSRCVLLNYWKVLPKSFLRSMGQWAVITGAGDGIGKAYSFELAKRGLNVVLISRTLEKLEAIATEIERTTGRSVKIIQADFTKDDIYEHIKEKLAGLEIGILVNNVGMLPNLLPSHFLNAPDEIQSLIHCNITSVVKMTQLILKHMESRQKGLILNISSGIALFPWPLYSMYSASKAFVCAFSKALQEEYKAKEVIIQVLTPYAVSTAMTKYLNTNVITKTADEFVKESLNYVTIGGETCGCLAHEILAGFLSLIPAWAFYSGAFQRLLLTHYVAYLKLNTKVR
Procedure: Cells were plated in 24-well tissue culture plates at 5×10^4 cells per well in their appropriate media. After allowing the cells to adhere for 24 hours, the media was changed to contain 10% cFBS (charcoal treated FBS) (300 μL) per well and 0.5μ Ci of the radiolabeled hormones were added to each well. After 3 hours, the supernatant was removed and 500 μL of extraction buffer (3 parts Ethyl Acetate: 1 part Acetone) was added to each sample and vortexed extensively. The organic layer was carefully removed and dried down in siliconized 1.5 mL microfuge tubes (National Scientific Supply Co.). […] The BAS screens were then read using a Fujifilm PhosphoImager FLA-2000 and spots were quantitated using the Fujifilm MacBas imaging/densitometry program.
The characterization of breast and prostate tumor cell lines for the 17β-HSD activities enabled the identification of cells which could be engineered for preferred 17β-HSD3 activity to monitor the cellular effects of inhibitors. […] In addition, 17β-HSD mRNA was not detected at appreciable levels in these cells by RT-PCR (data not shown). […]
To confirm that this class of compounds was inhibiting 17β-HSD3, Shinogi-17β-HSD3 cells incubated with {3H}-androstenedione were analyzed by TLC assay following 2-[(3-chloro-4-hydroxybenzoyl)amino]-N-[2-(2-methoxyphenyl)ethyl]-5-phenoxybenzamide treatment.

[1] = tested on: testosterone biosynthesis; test: testosterone levels in intact rats; format: in vivo; conditions: p.o., over 14 days, FIG. 6
Procedure: Intact rats were administered p.o. the indicated doses of 18β-glycyrrhetinic acid over 14 days and testosterone levels were determined.

Compound	effects on testosterone-stimulated parental MDA-MB453 (AR)	IC50 (17β-HSD3) [µM]	testosterone biosynthesis (testosterone levels) [1]
C[C@]12C=CC(=O)C=C1C(=O)C[C@@H]1[C@@H]2CC[C@]2(C)C(=O)CC[C@@H]12 [1,4-androstadiene-1,6,17-trione]	No effects were observed		
COc1ccccc1CCNC(=O)c1cc(Oc2ccccc2)ccc1NC(=O)c1ccc(O)c(Cl)c1 [2-[(3-chloro-4-hydroxybenzoyl)amino]-N-[2-(2-methoxyphenyl)ethyl]-5-phenoxybenzamide]		~0.3	
CC1(C)[C@@H](O)CC[C@]2(C)[C@H]3C(=O)C=C4[C@@H]5C[C@@](C)(C(=O)O)CC[C@]5(C)CC[C@@]4(C)[C@]3(C)CC[C@@H]12 [18β-glycyrrhetinic acid]	No effects were observed		inhibition of testosterone biosynthesis
